Results taken from patent US11596611B2, “Hepatitis B antiviral agents” (ENANTA PHARMACEUTICALS, INC., priority 2017, dated 2023).
pEC50: −log10 of the molar value.

How the values were obtained:
[1] = Compound toxicity by ATPLite (total ATP levels); type: cell-based; conditions: human, three days after compound addition, 50% reduction of total ATP
Description: Methods: HepAD38 cells are maintained as previously reported (Ladner et al, Antimicrob. Agents Chemother. 1997, […], 1715). Briefly, cells are passaged upon attaining confluency in DMEM/F12 media in the presence of 10% FBS, Penn/Strep, 250 μg/mL G418, and 1 ug/ml tetracycline. Novel compounds are screened by first washing cells three times with PBS to remove tetracycline, and plating in 96 well plates at 35,000 cells/well. Compounds dissolved in DMSO are then diluted 1:200 into wells containing cells. Five days after compound addition, material is harvested for analysis. For an extended 8 days analysis, cells are plated and treated as described above, but media and compound are refreshed on d2 and d5 post initial treatment.
Compound toxicity is evaluated by seeding cells at 15,000 cells/well and treating with compound as described above.

[2] = system: HBV; assay: HepAD38 antiviral assay: reduction of viral product accumulation (virion DNA by qPCR, HBsAg or HBeAg by ELISA); type: cell-based, hepatitis B virus; conditions: Hepatitis B virus, 120 h; HepAD38 cells, five days after compound addition; 50% reduction of viral product vs no drug controls; read-out: HepAD38 EC50
In short: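 Readouts were qPCR of lysed virion DNA plus ELISA for HBsAg or HBeAg, samples diluted into linear range. HepAD38 cells, washed free of tetracycline, received compound diluted 1:200 from DMSO for 5 days; 8-day variant refreshed media and compound on days 2 and 5.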

Row | SMILES | CC50 at 3 days ([1]; numeric bounds) | pEC50 [2] | CC50 at 3 days ([1]; class symbols)
1 | C[C@H](O)[C@@H](O)[C@]1(O)C2CCC1C[C@@H](S(=O)(=O)c1cc(C(=O)Nc3ccc(F)c(F)c3)ccc1Cl)C2 (mixture of isomers) [Example 173] | > 6.25 µM | > 6.98 | 
2 | C[C@@H]1CN([C@H]2C3CCC2C[C@H](S(=O)(=O)c2cc(C(=O)Nc4ccc(F)c(F)c4)ccc2Cl)C3)C(=O)O1 [Example 344] |  | > 6.98 | > 25 µM
3 | O=C(Nc1ccc(F)c(F)c1)c1ccc(Cl)c(S(=O)(=O)[C@@H]2CC3CC[C@@H](C2)[C@@]3(O)C(O)c2nccs2)c1 (stereo partly shown) [Example 302] |  | > 6.98 | > 25 µM
4 | C[C@@H](O)[C@@H](O)[C@]1(O)C2CCC1C[C@@H](S(=O)(=O)c1cc(C(=O)Nc3cc(F)c(F)c(F)c3)ccc1Cl)C2 (racemic) [Example 4] | > 12.5 µM | > 6.98 | 
5 | O=C(Nc1ccc(F)c(F)c1)c1ccc(Cl)c(S(=O)(=O)[C@H]2CC3CCC(C2)[C@]3(O)CNC(=O)c2nccs2)c1 [Example 168] |  | > 6.98 | 10 to 25 µM
6 | O=C(Nc1ccc(F)c(F)c1)c1ccc(Cl)c(S(=O)(=O)[C@H]2CC3CCC(C2)[C@]3(O)[C@H](O)c2ccccn2)c1 (single isomer, unassigned) [Example 284b] |  | > 6.98 | > 25 µM
7 | O=C(Nc1ccc(F)c(F)c1)c1ccc(Cl)c(S(=O)(=O)[C@H]2CC3CCC(C2)[C@]3(O)C(O)c2ncco2)c1 (stereo partly shown) [Example 290] |  | > 6.98 | > 25 µM
8 | [N-]=[N+]=NCC(O)[C@]1(O)C2CCC1C[C@@H](S(=O)(=O)c1cc(C(=O)Nc3cc(F)c(F)c(F)c3)ccc1Cl)C2 (mixture of isomers) [Example 11] | > 6.25 µM | > 6.98 | 
9 | C=C1CC1C(=O)NC[C@@]1(O)C2CC[C@H]1C[C@H](S(=O)(=O)c1cc(C(=O)Nc3cc(F)c(F)c(F)c3)ccc1Cl)C2 (stereo partly shown) [Example 66] |  | > 6.98 | 10 to 25 µM
10 | C=CCc1cc(Cl)c(S(=O)(=O)[C@H]2CC3CCC(C2)[C@@]3(C)O)cc1C(=O)Nc1ccc(F)c(F)c1 [Example 135] |  | > 6.98 | < 10 µM
11 | [2H]c1cc(F)c(F)c([2H])c1NC(=O)c1ccc(Cl)c(S(=O)(=O)[C@@H]2C([2H])([2H])C3CC[C@@H](C2([2H])[2H])[C@@]3(O)[C@@H](O)[C@H](C)O)c1 [Example 338] |  | > 6.98 | > 25 µM
12 | C[C@@H](O)[C@H](O)[C@]1(O)C2CCC1C[C@@H](S(=O)(=O)c1cc(C(=O)Nc3ccc(F)c(F)c3)ccc1Cl)C2 (single isomer, unassigned) [Example 183] |  | > 6.98 | > 25 µM
13 | C[C@H](O)[C@@H](O)[C@@]1(O)C2CC[C@H]1C[C@H](S(=O)(=O)c1cc(C(=O)Nc3cc(F)c(F)c(F)c3)ccc1Cl)C2 (single isomer, unassigned) [Example 137] | > 6.25 µM | > 6.98 | 
14 | Cn1cc(C(O)[C@]2(O)C3CCC2C[C@@H](S(=O)(=O)c2cc(C(=O)Nc4ccc(F)c(F)c4)ccc2Cl)C3)cn1 (stereo partly shown) [Example 289] |  | > 6.98 | > 25 µM
15 | O=C(Nc1cc(F)c(F)c(F)c1)c1ccc(Cl)c(S(=O)(=O)[C@H]2CC3CCC(C2)[C@@]3(O)C(O)CO)c1 (mixture of isomers) [Example 10] | > 12.5 µM | > 6.98 | 
16 | CN1CCC[C@@H]1C(=O)NC[C@]1(O)C2CCC1C[C@@H](S(=O)(=O)c1cc(C(=O)Nc3cc(F)c(F)c(F)c3)ccc1Cl)C2 [Example 1] | > 3 µM | > 6.98 | 
17 | O=C(Nc1ccc(F)c(C(F)F)c1)c1ccc(Cl)c(S(=O)(=O)[C@H]2CC3CCC(C2)[C@]3(O)CO)c1 [Example 151] |  | > 6.98 | > 25 µM
18 | COC(=O)[C@H]1O[C@@H](OC[C@@]2(O)C3CC[C@H]2C[C@H](S(=O)(=O)c2cc(C(=O)Nc4ccc(F)c(F)c4)ccc2Cl)C3)[C@H](OC(C)=O)[C@@H](OC(C)=O)[C@@H]1OC(C)=O [Example 329] |  | > 6.98 | > 25 µM
19 | C[C@@H](O)COC[C@]1(O)C2CCC1C[C@@H](S(=O)(=O)c1cc(C(=O)Nc3cc(F)c(F)c(F)c3)ccc1Cl)C2 (single isomer, unassigned) [Example 130] | > 12.5 µM | > 6.98 | 
20 | CC(C)(O)[C@@H](O)[C@@]1(O)C2CC[C@H]1C[C@H](S(=O)(=O)c1cc(C(=O)Nc3ccc(F)c(F)c3)ccc1Cl)C2 [Example 332] |  | > 6.98 | > 25 µM
21 | CC(C)(O)C1CN(C(=O)C[C@]2(O)C3CCC2C[C@@H](S(=O)(=O)c2cc(C(=O)Nc4cc(F)c(F)c(F)c4)ccc2Cl)C3)C1 [Example 93] | > 6.25 µM | > 6.98 | 
22 | C[C@@H](O)CNC(=O)C[C@]1(O)C2CCC1C[C@@H](S(=O)(=O)c1cc(C(=O)Nc3ccc(F)c(C(F)F)c3)ccc1Cl)C2 [Example 155] |  | > 6.98 | > 25 µM

Row | SMILES | CC50 at 3 days ([1]; numeric bounds) | pEC50 [2] | CC50 at 3 days ([1]; class symbols)
23 | O=C(Nc1ccc(F)c(F)c1)c1ccc(Cl)c(S(=O)(=O)[C@H]2CC3CCC(C2)[C@]3(O)C2CO2)c1 (stereo partly shown) [Example 308] |  | > 6.98 | > 25 µM
24 | C=CCNC(=O)C[C@]1(O)C2CCC1C[C@@H](S(=O)(=O)c1cc(C(=O)Nc3cc(F)c(F)c(F)c3)ccc1Cl)C2 [Example 58] | > 12.5 µM | > 6.98 | 
25 | C[C@@H](O)[C@@H](O)[C@]1(O)C2CCC1C[C@@H](S(=O)(=O)c1cc(C(=O)Nc3ccc(F)c(F)c3)ccc1Cl)C2 (mixture of isomers) [Example 172] |  | > 6.98 | > 25 µM
26 | [2H]C1([2H])C2C[C@]([2H])(S(=O)(=O)c3cc(C(=O)Nc4ccc(F)c(F)c4)ccc3Cl)CC(C1([2H])[2H])[C@]2(O)CO [Example 272] |  | > 6.98 | > 25 µM
27 | CO[C@H](C)CNC(=O)C[C@]1(O)C2CCC1C[C@@H](S(=O)(=O)c1cc(C(=O)Nc3ccc(F)c(F)c3)ccc1Cl)C2 [Example 189] | > 12.5 µM | > 6.98 | 
28 | C[C@H](O)CNC(=O)C[C@]1(O)C2CCC1C[C@@H](S(=O)(=O)c1cc(C(=O)Nc3ccc(F)c(F)c3)ccc1Cl)C2 [Example 185] | > 12.5 µM | > 6.98 | 
29 | O=C(Nc1cc(F)c(F)c(F)c1)c1ccc(Cl)c(S(=O)(=O)[C@H]2C3CC[C@H]2C[C@](O)(CCCO)C3)c1 [Example 9] | > 6.25 µM | > 6.98 | 
30 | C[C@H](O)C(=O)NC[C@]1(O)C2CCC1C[C@@H](S(=O)(=O)c1cc(C(=O)Nc3cc(F)c(F)c(F)c3)ccc1Cl)C2 [Example 13] | > 6.25 µM | > 6.98 | 
31 | C[C@@H](O)[C@H](O)COC[C@]1(O)C2CCC1C[C@@H](S(=O)(=O)c1cc(C(=O)Nc3cc(F)c(F)c(F)c3)ccc1Cl)C2 [Example 36] |  | > 6.98 | > 25 µM
32 | O=C(Nc1cc(F)c(F)c(F)c1)c1ccc(Cl)c(S(=O)(=O)[C@H]2CC3CCC(C2)[C@]3(O)CNC(=O)C2CCCOC2)c1 (stereo partly shown) [Example 90] | > 6.25 µM | > 6.98 | 
33 | O=C(C[C@]1(O)C2CCC1C[C@@H](S(=O)(=O)c1cc(C(=O)Nc3cc(F)c(F)c(F)c3)ccc1Cl)C2)N[C@H]1CCOC1 [Example 72] | > 3 µM | > 6.98 | 
34 | O=C(Nc1ccc(F)c(F)c1)c1ccc(Cl)c(S(=O)(=O)[C@H]2CC3CCC(C2)[C@]3(O)C(O)Cc2ccncc2)c1 (stereo partly shown) [Example 317] |  | > 6.98 | > 25 µM
35 | COCCNC(=O)C[C@]1(O)C2CCC1C[C@@H](S(=O)(=O)c1cc(C(=O)Nc3cc(F)c(F)c(F)c3)ccc1Cl)C2 [Example 114] | > 6.25 µM | > 6.98 | 
36 | C[C@@H](O)[C@@H](O)[C@@]1(O)C2CC[C@H]1C[C@H](S(=O)(=O)c1cc(C(=O)Nc3cc(F)c(F)c(F)c3)ccc1Cl)C2 (single isomer, unassigned) [Example 136] | > 12.5 µM | > 6.98 | 
37 | Cc1cc(Cl)c(S(=O)(=O)[C@H]2CC3CCC(C2)[C@]3(O)[C@H](O)[C@H](C)O)cc1C(=O)Nc1ccc(F)c(F)c1 [Example 335] |  | > 6.98 | > 25 µM
38 | O=C(Nc1ccc(F)c(F)c1)c1ccc(Cl)c(S(=O)(=O)[C@H]2CC3CCC(C2)[C@]3(O)[C@H](O)c2cccnc2)c1 (single isomer, unassigned) [Example 285b] |  | > 6.98 | > 25 µM
39 | CC(C)=CCNC(=O)C[C@]1(O)C2CCC1C[C@@H](S(=O)(=O)c1cc(C(=O)Nc3cc(F)c(F)c(F)c3)ccc1Cl)C2 [Example 52] |  | > 6.98 | > 25 µM
40 | CC(O)CNC(=O)C[C@]1(O)C2CCC1C[C@@H](S(=O)(=O)c1cc(C(=O)Nc3cc(F)c(F)c(F)c3)ccc1Cl)C2 (stereo partly shown) [Example 54] |  | > 6.98 | > 25 µM
41 | CC(=O)C[C@@]1(O)C2CC[C@H]1C[C@H](S(=O)(=O)c1cc(C(=O)Nc3ccc(F)c(F)c3)ccc1Cl)C2 [Example 215] |  | > 6.98 | > 25 µM
42 | O=C(Nc1ccc(F)c(F)c1)c1ccc(Cl)c(S(=O)(=O)[C@H]2CC3CCC(C2)[C@]3(O)[C@@H](O)c2cccnc2)c1 (single isomer, unassigned) [Example 285a] |  | > 6.98 | > 25 µM
43 | O=C(C[C@]1(O)C2CCC1C[C@@H](S(=O)(=O)c1cc(C(=O)Nc3cc(F)c(F)c(F)c3)ccc1Cl)C2)N[C@@H]1CCOC1 [Example 73] | > 6.25 µM | > 6.98 | 
44 | C=CCS(=O)(=O)NC[C@]1(O)C2CCC1C[C@@H](S(=O)(=O)c1cc(C(=O)Nc3cc(F)c(F)c(F)c3)ccc1Cl)C2 [Example 39] | > 6.25 µM | > 6.98 | 
